Paper PMC7044277 (Nature Communications, 2020)
Values joined by “and” are separate entries in the source; they are usually repeats but may differ in a detail not shown here. Equal values may be shown once.

Assays:
[1] = molecular target: T1, DRD4 (D4.4 variant) wild-type (Homo sapiens, UniProt P21917); experiment: Radioligand competition binding, [3H]-N-methylspiperone; conditions: DRD4; [3H]-methylspiperone (0.8-1.0 nM); read-out: Ki
T1 sequence (P21917 1-419): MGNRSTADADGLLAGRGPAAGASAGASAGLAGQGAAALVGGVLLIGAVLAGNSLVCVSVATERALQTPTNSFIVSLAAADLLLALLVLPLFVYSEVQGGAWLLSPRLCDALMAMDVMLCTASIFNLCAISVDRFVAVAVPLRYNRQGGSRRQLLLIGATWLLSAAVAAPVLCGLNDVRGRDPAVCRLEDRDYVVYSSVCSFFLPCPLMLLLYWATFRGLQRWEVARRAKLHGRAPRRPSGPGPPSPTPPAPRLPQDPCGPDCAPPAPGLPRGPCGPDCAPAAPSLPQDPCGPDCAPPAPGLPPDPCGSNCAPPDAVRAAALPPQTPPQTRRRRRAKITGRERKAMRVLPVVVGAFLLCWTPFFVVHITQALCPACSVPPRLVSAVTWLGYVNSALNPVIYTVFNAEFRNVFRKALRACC

[2] = molecular target: DRD2 (D2 long receptor) wild-type (Homo sapiens, UniProt P14416); experiment: Radioligand competition binding, [3H]-N-methylspiperone, HEK293T membranes; conditions: DRD2; [3H]-methylspiperone (0.8-1.0 nM); read-out: Ki
DRD2 (D2 long receptor) wild-type, sequence (P14416 whole entry): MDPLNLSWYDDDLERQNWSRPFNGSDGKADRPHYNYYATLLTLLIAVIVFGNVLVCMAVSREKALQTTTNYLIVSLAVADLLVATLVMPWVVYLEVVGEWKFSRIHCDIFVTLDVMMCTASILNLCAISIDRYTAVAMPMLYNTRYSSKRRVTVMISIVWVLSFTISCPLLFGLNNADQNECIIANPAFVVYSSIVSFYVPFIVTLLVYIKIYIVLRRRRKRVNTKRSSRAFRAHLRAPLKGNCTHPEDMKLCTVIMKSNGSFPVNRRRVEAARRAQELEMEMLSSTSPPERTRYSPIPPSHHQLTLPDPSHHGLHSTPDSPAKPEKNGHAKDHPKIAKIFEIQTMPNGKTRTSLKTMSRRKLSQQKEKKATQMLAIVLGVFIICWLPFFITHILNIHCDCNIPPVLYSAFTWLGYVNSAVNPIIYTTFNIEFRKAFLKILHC

DRD3 F1063.28A = DRD3 F1063.28A (Homo sapiens, UniProt P35462, F106A); experiment: biochemical; type: binding
DRD3 F1063.28A, sequence (P35462 whole entry F106A): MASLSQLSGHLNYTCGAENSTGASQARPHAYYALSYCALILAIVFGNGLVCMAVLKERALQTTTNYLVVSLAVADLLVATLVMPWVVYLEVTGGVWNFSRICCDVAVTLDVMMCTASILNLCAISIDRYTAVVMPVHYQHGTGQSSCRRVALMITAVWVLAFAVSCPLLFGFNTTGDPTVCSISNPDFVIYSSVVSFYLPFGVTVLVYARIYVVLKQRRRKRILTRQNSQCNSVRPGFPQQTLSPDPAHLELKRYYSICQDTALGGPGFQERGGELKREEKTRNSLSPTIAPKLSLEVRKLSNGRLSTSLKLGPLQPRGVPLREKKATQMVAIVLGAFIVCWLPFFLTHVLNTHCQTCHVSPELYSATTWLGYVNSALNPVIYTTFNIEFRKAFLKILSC

[3] = system: serotonin receptor of Fig_S10i (subtype not given); experiment: β-arrestin2 recruitment (Tango), agonist activity, source data Fig_S10i; type: cell-based, human; conditions: drug alone
5HT1E = 5HT1E (Homo sapiens, UniProt P28566); experiment: β-arrestin2 recruitment (Tango); type: cell-based; conditions: Fig_S10i
5HT1E, sequence (P28566 whole entry): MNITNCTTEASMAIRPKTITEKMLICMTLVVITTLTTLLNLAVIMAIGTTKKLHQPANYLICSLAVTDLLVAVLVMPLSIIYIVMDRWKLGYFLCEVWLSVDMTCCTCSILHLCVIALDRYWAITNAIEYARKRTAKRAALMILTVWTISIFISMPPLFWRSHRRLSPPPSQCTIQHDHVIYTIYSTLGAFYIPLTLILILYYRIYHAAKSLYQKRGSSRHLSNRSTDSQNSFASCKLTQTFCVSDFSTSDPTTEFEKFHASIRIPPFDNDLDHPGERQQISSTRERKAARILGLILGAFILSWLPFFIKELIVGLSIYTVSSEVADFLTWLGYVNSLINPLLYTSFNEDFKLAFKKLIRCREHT

DRD2 (D2 long receptor) = DRD2 (D2 long receptor) (Homo sapiens, UniProt P14416); experiment: β-arrestin2 recruitment (Tango), HTLA cells; type: cell-based; conditions: for response, concentration-response data point (replicates): Fig_S10a, drug alone
DRD2 (D2 long receptor), sequence (P14416 whole entry): as the sequence (P14416 whole entry) above

DRD2 F1103.28L = molecular target: T2, DRD2 F1103.28L (Homo sapiens, UniProt P14416, F110L); experiment: Gαi/o-mediated cAMP inhibition (GloSensor), mutant; type: cell-based; conditions: DRD2 F1103.28L (b138 head prints DRD2 F1063.28L)
T2 construct: expressed in transfected cells; host or cells: HEK293T (ATCC CRL-11268)
T2 sequence (P14416 whole entry F110L): as the sequence (P14416 whole entry) above, with F110L counted along it

## CCOc1cccc2cc([C@H](C)NCC3(O)CCCCC3)oc12 [O4SE6]
[1]
  Ki: > 10 µM
[2]
  Ki: 4.57 µM
DRD3 F1063.28A
  Ki: 1.91 µM
[3]; Log[Drug] -11.52
  response, single replicates of the concentration-response curve: -11.574 and -4.3 and 8.5185 and 5.043 and 17.6989 and -6.28 and -5.544 and 6.734 and -5.212
[3]; Log[Drug] -12
  response, single replicates of the concentration-response curve: -1.958 and 0.9753 and 5.65 and 9.245 and 10.4038 and -4.648 and 6.652 and -2.743 and 7.282
5HT1E; Log[Drug] -5.52
  β-arrestin2 recruitment response, agonist mode (single replicate values): 0.8358
5HT1E; Log[Drug] -6
  β-arrestin2 recruitment response, agonist mode (single replicate values): -1.216 and -11.5535 and -10.8591 and -6.779 and -25.5686 and -12.8268 and -17.4797 and -14.3235 and -24.758
5HT1E; Log[Drug] -6.52
  β-arrestin2 recruitment response, agonist mode (single replicate values): -5.589 and -4.67 and -2.933 and -14.8207 and -0.8192 and -17.7203 and -10.9861 and -19.449 and -21.9113
5HT1E; Log[Drug] -7
  β-arrestin2 recruitment response, agonist mode (single replicate values): -10.5885 and -12.0267 and -4.043 and -9.048 and -20.5356 and 41.9563 and -10.9581 and -15.0865 and -7.033
5HT1E; Log[Drug] -7.52
  β-arrestin2 recruitment response, agonist mode (single replicate values): -6.825 and 5.648 and -4.719 and -12.9295 and 12.6751 and -7.089 and -18.5156 and -18.3717 and -21.8227
5HT1E; Log[Drug] -8
  β-arrestin2 recruitment response, agonist mode (single replicate values): -7.977 and -8.538 and -9.216 and -19.7126 and -7.765 and -29.5609 and -0.3541 and 4.202 and -14.1998
5HT1E; Log[Drug] -8.52
  β-arrestin2 recruitment response, agonist mode (single replicate values): -8.057 and -8.967 and 2.216 and 9.159 and -4.385 and 8.583 and -6.33 and -6.852 and -26.8276
5HT1E; Log[Drug] -9
  β-arrestin2 recruitment response, agonist mode (single replicate values): 0.8147 and -7.106 and -2.942 and -13.4536 and -20.6306 and -0.4912 and -5.667 and -8.764 and -8.801
5HT1E; Log[Drug] -9.52
  β-arrestin2 recruitment response, agonist mode (single replicate values): -5.189 and -0.1954 and -0.3872 and -6.065 and -25.1931 and 34.39 and 6.445 and -12.4444 and -9.8607
5HT1E; Log[Drug] -10
  β-arrestin2 recruitment response, agonist mode (single replicate values): 5.7233 and -7.338 and -6.569 and -5.352 and 52.7977 and 2.248 and -7.089 and -2.873 and 1.262
5HT1E; Log[Drug] -10.52
  β-arrestin2 recruitment response, agonist mode (single replicate values): -5.082 and -6.296 and 10.3259 and -3.566 and -12.7533 and -11.9533 and -23.7764 and -18.6704 and -6.074
5HT1E; Log[Drug] -11
  β-arrestin2 recruitment response, agonist mode (single replicate values): -1.572 and -7.387 and 4.824 and -17.5471 and -8.254 and 2.626 and -10.6703 and -5.6779 and -4.661
DRD2 (D2 long receptor); DRD2, Tango
  β-arrestin2 recruitment agonist activity: selective DRD2 agonist
DRD2 (D2 long receptor); DRD2, β-arrestin2 recruitment (Tango), read-out: EC50 ± SEM
  EC50: 1.05 µM
DRD2 (D2 long receptor); Log[Drug] -5
  response, concentration-response data point (replicates): 73.5777 and 57.7969 and 60.7943 and 65.7822 and 71.9755 and 71.4753 and 62.0106
DRD2 (D2 long receptor); Log[Drug] -5.52
  response, concentration-response data point (replicates): 50.6787 and 47.7474 and 41.401 and 56.0167 and 52.8546 and 51.367 and 55.6817
DRD2 (D2 long receptor); Log[Drug] -6
  response, concentration-response data point (replicates): 39.3966 and 41.1099 and 37.2084 and 41.7585 and 38.5021 and 38.079 and 42.2149
  β-arrestin2 recruitment response at DRD2 (source data, replicate values): 82.8973
DRD2 (D2 long receptor); Log[Drug] -6.52
  response, concentration-response data point (replicates): 17.548 and 17.9218 and 22.2395 and 30.2893 and 22.7451 and 19.4102 and 21.7916
  β-arrestin2 recruitment response at DRD2 (source data, replicate values): 72.8482 and 85.473 and 74.6038 and 82.6009 and 103.942 and 82.378 and 70.1593 and 68.4699 and 74.397
DRD2 (D2 long receptor); Log[Drug] -7
  response, concentration-response data point (replicates): 9.564 and 7.739 and 7.708 and 7.415 and 7.649 and 7.113 and 9.501
  β-arrestin2 recruitment response at DRD2 (source data, replicate values): 71.4846 and 69.3009 and 62.1089 and 68.8602 and 55.9009 and 59.7861 and 54.6819 and 54.8285 and 54.3284
DRD2 (D2 long receptor); Log[Drug] -7.52
  response, concentration-response data point (replicates): 5.75 and 5.841 and 5.282 and 5.619 and 6.782 and 5.749 and 5.8801
  β-arrestin2 recruitment response at DRD2 (source data, replicate values): 50.7715 and 50.9759 and 58.0792 and 57.6214 and 43.2407 and 45.9376 and 55.9749 and 62.7315 and 56.5853
DRD2 (D2 long receptor); Log[Drug] -8
  response, concentration-response data point (replicates): 5.434 and 5.45 and 5.389 and 5.042 and 5.329 and 5.148 and 5.345
  β-arrestin2 recruitment response at DRD2 (source data, replicate values): 39.7841 and 36.3747 and 29.4664 and 31.1292 and 29.8397 and 30.2988 and 27.2382 and 26.622 and 26.0732
DRD2 (D2 long receptor); Log[Drug] -8.52
  response, concentration-response data point (replicates): 5.277 and 5.01 and 4.9419 and 4.98 and 5.0858 and 5.308 and 5.178
  β-arrestin2 recruitment response at DRD2 (source data, replicate values): 13.2168 and 14.3867 and 13.161 and 13.9303 and 10.9069 and 10.856 and 10.5462 and 11.4912 and 11.2421
DRD2 (D2 long receptor); Log[Drug] -9
  response, concentration-response data point (replicates): 5.4097 and 5.385 and 5.128 and 4.863 and 4.947 and 4.805 and 4.8829
  β-arrestin2 recruitment response at DRD2 (source data, replicate values): 7.123 and 6.617 and 6.837 and 5.043 and 6.064 and 6.895 and 5.588 and 6.122 and 5.826
DRD2 (D2 long receptor); Log[Drug] -9.52
  response, concentration-response data point (replicates): 5.139 and 4.887
  β-arrestin2 recruitment response at DRD2 (source data, replicate values): 5.908 and 5.15 and 5.772 and 5.0023 and 4.872 and 4.927 and 5.017 and 5.057 and 5.0924
DRD2 (D2 long receptor); Log[Drug] -10
  response, concentration-response data point (replicates): 5.431 and 4.786 and 4.659 and 4.856 and 4.756 and 4.79 and 4.8682
  β-arrestin2 recruitment response at DRD2 (source data, replicate values): 5.347 and 5.121 and 5.289 and 4.982 and 4.774 and 4.763 and 4.918 and 4.901 and 4.8503
DRD2 (D2 long receptor); Log[Drug] -10.52
  response, concentration-response data point (replicates): 5.022 and 4.798 and 4.776 and 4.763 and 4.86 and 4.945 and 4.841
  β-arrestin2 recruitment response at DRD2 (source data, replicate values): 5.092 and 5.033 and 5.133 and 4.671 and 4.683 and 4.718 and 4.817 and 4.868 and 4.747
DRD2 (D2 long receptor); Log[Drug] -11
  response, concentration-response data point (replicates): 4.915 and 4.765 and 4.615 and 4.7302 and 4.774 and 4.749 and 4.971
  β-arrestin2 recruitment response at DRD2 (source data, replicate values): 5.0524 and 5.024 and 4.843 and 4.786 and 4.868 and 4.603 and 4.715 and 4.851 and 5.108
DRD2 (D2 long receptor); Log[Drug] -11.52
  response, concentration-response data point (replicates): 4.946 and 4.662 and 4.627 and 4.695 and 4.751 and 4.656 and 4.732
  β-arrestin2 recruitment response at DRD2 (source data, replicate values): 4.975 and 5.004 and 4.993 and 4.845 and 4.81 and 4.615 and 4.945 and 4.7318 and 4.6555
DRD2 (D2 long receptor); Log[Drug] -12
  response, concentration-response data point (replicates): 4.887 and 4.582 and 4.674 and 4.754 and 4.726 and 4.751 and 4.811
DRD2 (D2 long receptor); HTLA, read-out: Emax relative to quinpirole response, DRD2, Tango
  Emax: 71.3%
DRD2 F1103.28L
  EC50: > 10 µM
